# Data published in patent publication US9167822B2, “Antifungal compositions” (DSM IP ASSETS B.V., priority 2012, dated 2015).
# Several values for one entry are separate records, joined by “and”; a condition that tells them apart may be missing. Equal entries are not always repeated.
# Key:
# Botrytis cinerea [1] = test: Treatment of strawberries: wounded, dipped in antifungal composition, then inoculated with Botrytis cinerea; type: in vivo; conditions: 1000 ppm bixafen or both
# Experimental: (§1) Ten fresh, organic strawberries were used per treatment. Each strawberry was wounded with a 0.5 mm long cut and each wound was inoculated with 10 μl of a Botrytis cinerea suspension containing 1×10^5 of spores/ml. […] The pH of the compositions was 4. A composition without natamycin or bixafen was used as control. The treated strawberries were incubated in a closed box in the dark at 20° C.
# (§2) During incubation, mould growth on the strawberries was assessed in a twofold manner: (i) the number of moulded strawberries per total of 10 strawberries was counted; and (ii) the antifungal activity (in %) of the individual and combined active ingredients was determined by calculating the reduction in mould growth observed on the strawberries treated with the antifungal composition in comparison to the mould growth on the strawberries treated with the control composition. The expected antifungal activity (E in %) of the combined antifungal composition comprising both active ingredients was calculated according to the Colby equation (Colby, 1967): E=X+Y−[(X·Y)/100] wherein X and Y are the observed antifungal activities (in %) of the individual active ingredients X and Y, respectively. If the observed antifungal activity (O in %) of the combination exceeds the expected antifungal activity (E in %) of the combination and the synergy factor O/E is thus >1.0, the combined application of the active ingredients leads to a synergistic antifungal effect.
# After treatment, each strawberry was inoculated with 10 μl of a Botrytis cinerea suspension containing 1×10^5 of spores/ml. The treated strawberries were assessed on mould growth according to the two methods described in Example 3.
# Botrytis cinerea [2] = test: Treatment of strawberries: wounded, inoculated with Botrytis cinerea, then dipped in antifungal composition; type: in vivo
# Experimental: as §1, §2
# The treated strawberries were assessed on mould growth. The antifungal activity (in %) of the individual and combined active ingredients was determined according to the method described in Example 3. […]
# Penicillium italicum [3] = test: Treatment of mandarins wounded and inoculated with Penicillium italicum, then dipped; type: in vivo
# Experimental: (§3) Ten fresh, organic mandarins were used per treatment. The peel of each mandarin was wounded once using a cork borer according to the method described by de Lapeyre de Bellaire and Dubois (1987). Subsequently, each wound was inoculated with 10 μl of a Penicillium italicum suspension containing 1×10^5 of spores/ml. […] The pH of the compositions was 4.
# The treated mandarins were incubated in a closed box in the dark at 20° C. and assessed on mould growth during incubation.
# Penicillium italicum [4] = test: In vitro antifungal activity, 96-well microtiter plates; type: cell-based; conditions: 25° C.
# Experimental: Subsequently, 100 μl of a Botrytis cinerea suspension prepared in PCB medium was used to inoculated each well with 2.5×10^3 spores/ml.
# After incubation of the microtiter plates at 25° C., the in vitro antifungal activity (%) of the individual active ingredients was assessed by calculating the reduction in mould growth observed in the presence of the active ingredient in comparison to the mould growth observed in the absence of the active ingredient. The expected antifungal activity (E in %) of the active ingredient combination was calculated according to the Colby equation (Colby, 1967): E=X+Y−[(X·Y)/100] wherein X and Y are the observed antifungal activities (in %) of the individual active ingredients X and Y, respectively. If the observed antifungal activity (O in %) of the combination exceeds the expected antifungal activity (E in %) of the combination and the resulting synergy factor O/E is thus >1.0, the combined application of the active ingredients leads to a synergistic antifungal effect.
# Furthermore, Penicillium italicum was used for inoculation.
# Penicillium italicum [5] = test: Treatment of apples wounded and inoculated with Penicillium italicum, then dipped; type: in vivo; conditions: for Number of moulded apples/total number of 10 apples: 500 ppm natamycin; for Number of moulded apples per total of 10 apples: 250 ppm natamycin
# Experimental: as §3, with “apples” for “mandarins”, “Each apple” for “The peel of each mandarin”, “1×10^6” for “1×10^5”, “4. A composition without natamycin or bixafen was used as control. The treated apples were incubated in a closed box in the dark at 20° C. […]” for “4.”
# During incubation, the treated apples were assessed on mould growth according to the two methods described in Example 3. […]
# [6] = day 3, 500 ppm natamycin, 2000 ppm bixafen or both
# [7] = day 4, 250 ppm natamycin, 250 ppm bixafen or both
# [8] = day 4, 250 ppm natamycin, 500 ppm bixafen or both
# [9] = day 4, 500 ppm natamycin, 2000 ppm bixafen or both
# [10] = day 6, 250 ppm natamycin, 250 ppm bixafen or both
# [11] = day 6, 250 ppm natamycin, 500 ppm bixafen or both
# [12] = day 6, 500 ppm natamycin, 2000 ppm bixafen or both
# [13] = day 7, 250 ppm natamycin, 250 ppm bixafen or both
# [14] = day 7, 250 ppm natamycin, 500 ppm bixafen or both
# [15] = day 9, 250 ppm natamycin, 500 ppm bixafen or both
# [16] = day 9, 500 ppm natamycin, 2000 ppm bixafen or both
# [17] = day 6, 500 ppm natamycin, 1000 ppm bixafen or both
# [18] = day 11, 500 ppm natamycin, 2000 ppm bixafen or both
# [19] = day 14, 500 ppm natamycin, 1000 ppm bixafen or both
# [20] = day 14, 500 ppm natamycin, 2000 ppm bixafen or both
structure (smiles),measurement,setting,value
"C[C@@H]1C/C=C/C=C/C=C/C=C/[C@H](O[C@@H]2O[C@H](C)[C@@H](O)[C@H](N)[C@@H]2O)C[C@@H]2O[C@](O)(C[C@@H](O)C[C@H]3O[C@@H]3/C=C/C(=O)O1)C[C@H](O)[C@H]2C(=O)O [Natamycin, natamycin]",Observed antifungal activity O (%),"Botrytis cinerea [1]; day 3, 500 ppm natamycin",59%
same,Number of moulded wounds/total number of 10 wounds,"Botrytis cinerea [1]; day 5, 20° C., 250 ppm natamycin",10 and 10/10
same,Observed antifungal activity O (%),"Botrytis cinerea [1]; day 5, 500 ppm natamycin",19%
same,Observed antifungal activity O (%),"Botrytis cinerea [1]; day 6, 500 ppm natamycin",12%
same,Number of moulded strawberries/total number of 10 strawberries,"Botrytis cinerea [2]; Day 3, 20° C., 250 ppm natamycin, 250 ppm bixafen or both",8 and 8/10
same,Number of moulded strawberries/total number of 10 strawberries,"Botrytis cinerea [2]; Day 3, 20° C., 500 ppm natamycin, 2000 ppm bixafen or both",10 and 10/10
same,Number of moulded strawberries/total number of 10 strawberries,"Botrytis cinerea [2]; Day 4, 20° C., 250 ppm natamycin, 250 ppm bixafen or both",10 and 10/10
same,Number of moulded strawberries/total number of 10 strawberries,"Botrytis cinerea [2]; Day 4, 20° C., 500 ppm natamycin, 2000 ppm bixafen or both",10 and 10/10
same,Number of moulded strawberries/total number of 10 strawberries,"Botrytis cinerea [2]; Day 5, 20° C., 250 ppm natamycin, 250 ppm bixafen or both",10 and 10/10
same,Number of moulded strawberries/total number of 10 strawberries,"Botrytis cinerea [2]; Day 5-6, 20° C., 500 ppm natamycin, 2000 ppm bixafen or both",10 and 10/10
same,Observed antifungal activity O (%),Botrytis cinerea [2]; [6],21%
same,Observed antifungal activity O (%),Botrytis cinerea [2]; [7],6%
same,Observed antifungal activity O (%),Botrytis cinerea [2]; [8],6%
same,Observed antifungal activity O (%),Botrytis cinerea [2]; [9],16%
same,Observed antifungal activity O (%),"Botrytis cinerea [2]; day 5, 250 ppm natamycin, 250 ppm bixafen or both",2%
same,Observed antifungal activity O (%),"Botrytis cinerea [2]; day 5, 500 ppm natamycin, 2000 ppm bixafen or both",3%
same,Observed antifungal activity O (%),Botrytis cinerea [2]; [10],0%
same,Observed antifungal activity O (%),Botrytis cinerea [2]; [11],0%
same,Observed antifungal activity O (%),Botrytis cinerea [2]; [12],0%
same,Observed antifungal activity O (%),Botrytis cinerea [2]; [13],0%
same,Observed antifungal activity O (%),Botrytis cinerea [2]; [14],0%
same,Observed antifungal activity O (%),"Botrytis cinerea [2]; day 7, 500 ppm natamycin, 2000 ppm bixafen or both",0%
same,Observed antifungal activity O (%),Botrytis cinerea [2]; [15],0%
same,Observed antifungal activity O (%),Botrytis cinerea [2]; [16],0%
same,Observed antifungal activity O (%),"Botrytis cinerea [2]; day 10, 250 ppm natamycin, 500 ppm bixafen or both",0%
same,Observed antifungal activity O (%),"Penicillium italicum [3]; day 3, 250 ppm natamycin, 250 ppm bixafen or both",70%
same,Observed antifungal activity O (%),Penicillium italicum [3]; [7],43%
same,Observed antifungal activity O (%),Penicillium italicum [3]; [8],43%
same,Observed antifungal activity O (%),"Penicillium italicum [3]; day 4, 500 ppm natamycin, 1000 ppm bixafen or both",63%
same,Observed antifungal activity O (%),Penicillium italicum [3]; [9],63%
same,Observed antifungal activity O (%),Penicillium italicum [3]; [10],18%
same,Observed antifungal activity O (%),Penicillium italicum [3]; [11],18%
same,Observed antifungal activity O (%),Penicillium italicum [3]; [17],28%
same,Observed antifungal activity O (%),Penicillium italicum [3]; [12],28%
same,Observed antifungal activity O (%),Penicillium italicum [3]; [13],10%
same,Observed antifungal activity O (%),Penicillium italicum [3]; [14],10%
same,Observed antifungal activity O (%),"Penicillium italicum [3]; day 7, 500 ppm natamycin, 1000 ppm bixafen or both",16%
same,Observed antifungal activity O (%),"Penicillium italicum [3]; day 9, 250 ppm natamycin, 250 ppm bixafen or both",8%
same,Observed antifungal activity O (%),Penicillium italicum [3]; [15],8%
same,Observed antifungal activity O (%),"Penicillium italicum [3]; day 11, 250 ppm natamycin, 500 ppm bixafen or both",13%
same,Observed antifungal activity O (%),Penicillium italicum [3]; [18],13%
same,Observed antifungal activity O (%),"Penicillium italicum [3]; day 13, 250 ppm natamycin, 500 ppm bixafen or both",12%
same,Observed antifungal activity O (%),Penicillium italicum [3]; [19],9%
same,Observed antifungal activity O (%),Penicillium italicum [3]; [20],9%
same,Observed antifungal activity O (%),"Penicillium italicum [3]; day 15, 250 ppm natamycin, 500 ppm bixafen or both",6%
same,Observed antifungal activity O (%),"Penicillium italicum [3]; day 15, 500 ppm natamycin, 1000 ppm bixafen or both",5%
same,Observed antifungal activity O (%),"Penicillium italicum [3]; day 15, 500 ppm natamycin, 2000 ppm bixafen or both",5%
same,Observed antifungal activity O (%),"Penicillium italicum [4]; day 10, 0.63 ppm natamycin, 25 ppm isopyrazam or both",0%
same,Observed antifungal activity O (%),"Penicillium italicum [4]; day 10, 1.25 ppm natamycin, 25 ppm bixafen or both",0%
same,Number of moulded apples/total number of 10 apples,"Penicillium italicum [5]; Day 3, 20° C., 1000 ppm bixafen or both",9 and 9/10
same,Number of moulded apples/total number of 10 apples,"Penicillium italicum [5]; Day 3-4, 20° C., 2000 ppm bixafen or both",9 and 9/10
same,Number of moulded apples/total number of 10 apples,"Penicillium italicum [5]; Day 4, 20° C., 1000 ppm bixafen or both",9 and 9/10
same,Number of moulded apples per total of 10 apples,"Penicillium italicum [5]; Day 6, 20° C., 500 ppm bixafen or both",10 and 10/10
same,Number of moulded apples/total number of 10 apples,"Penicillium italicum [5]; Day 6, 20° C., 1000 ppm bixafen or both",10 and 10/10
same,Number of moulded apples/total number of 10 apples,"Penicillium italicum [5]; Day 6, 20° C., 2000 ppm bixafen or both",10 and 10/10
same,Number of moulded apples per total of 10 apples,"Penicillium italicum [5]; Day 6-9, 20° C., 250 ppm bixafen or both",all and 10/10
same,Number of moulded apples per total of 10 apples,"Penicillium italicum [5]; Day 7, 20° C., 500 ppm bixafen or both",10 and 10/10
same,Number of moulded apples/total number of 10 apples,"Penicillium italicum [5]; Day 7, 20° C., 1000 ppm bixafen or both",10 and 10/10
same,Number of moulded apples/total number of 10 apples,"Penicillium italicum [5]; Day 7, 20° C., 2000 ppm bixafen or both",10 and 10/10
same,Number of moulded apples per total of 10 apples,"Penicillium italicum [5]; Day 9, 20° C., 500 ppm bixafen or both",10 and 10/10
same,Number of moulded apples/total number of 10 apples,"Penicillium italicum [5]; Day 9-14, 20° C., 1000 ppm bixafen or both",all and 10/10
same,Number of moulded apples/total number of 10 apples,"Penicillium italicum [5]; Day 9-14, 20° C., 2000 ppm bixafen or both",all and 10/10
same,Number of moulded apples per total of 10 apples,"Penicillium italicum [5]; Day 11-15, 20° C., 250 ppm bixafen or both",all and 10/10
same,Observed antifungal activity O (%),"Penicillium italicum [5]; day 3, 500 ppm natamycin, 1000 ppm bixafen or both",33%
same,Observed antifungal activity O (%),Penicillium italicum [5]; [6],33%
same,Observed antifungal activity O (%),"Penicillium italicum [5]; day 6, 250 ppm natamycin, 250 ppm bixafen or both (bixafen 500 ppm)",38%
same,Observed antifungal activity O (%),Penicillium italicum [5]; [11],38%
same,Observed antifungal activity O (%),Penicillium italicum [5]; [17],6%
same,Observed antifungal activity O (%),Penicillium italicum [5]; [12],6%
same,Observed antifungal activity O (%),Penicillium italicum [5]; [14],42%
same,Observed antifungal activity O (%),"Penicillium italicum [5]; day 9, 250 ppm natamycin, 250 ppm bixafen or both (bixafen 500 ppm)",35%
same,Observed antifungal activity O (%),Penicillium italicum [5]; [15],35%
same,Observed antifungal activity O (%),"Penicillium italicum [5]; day 9, 500 ppm natamycin, 1000 ppm bixafen or both",21%
same,Observed antifungal activity O (%),Penicillium italicum [5]; [16],21%
same,Observed antifungal activity O (%),"Penicillium italicum [5]; day 11, 250 ppm natamycin, 250 ppm bixafen or both (bixafen 500 ppm)",42%
same,Observed antifungal activity O (%),"Penicillium italicum [5]; day 11, 500 ppm natamycin, 1000 ppm bixafen or both",26%
same,Observed antifungal activity O (%),Penicillium italicum [5]; [18],26%
same,Observed antifungal activity O (%),"Penicillium italicum [5]; day 14, 250 ppm natamycin, 250 ppm bixafen or both (bixafen 500 ppm)",49%
same,Observed antifungal activity O (%),Penicillium italicum [5]; [19],30%
same,Observed antifungal activity O (%),Penicillium italicum [5]; [20],30%
